Values of other authors in patent US20170020837A1, “FUMARATE COMPOUNDS, PHARMACEUTICAL COMPOSITIONS THEREOF, AND METHODS OF USE” (priority 2015, published 2017).

For `COC(=O)/C=C/C(=O)OC` [DMF, dimethylfumarate], the aqueous solubility is listed as “poor”.
